By EC50 is commonly meant the midpoint of the concentration-response curve.

The test addresses T1, polycystin-2 channels (Mus musculus, UniProt O35245, DEL771-772).
T1 construct: the mouse channel orthologue under endogenous expression in the kidney collecting duct; endogenous in cells; host or cells: primary inner medullary collecting duct (pIMCD) cells of ARL13B-EGFP mice
T1 sequence (O35245 with tags, fused parts or gaps DEL771-772): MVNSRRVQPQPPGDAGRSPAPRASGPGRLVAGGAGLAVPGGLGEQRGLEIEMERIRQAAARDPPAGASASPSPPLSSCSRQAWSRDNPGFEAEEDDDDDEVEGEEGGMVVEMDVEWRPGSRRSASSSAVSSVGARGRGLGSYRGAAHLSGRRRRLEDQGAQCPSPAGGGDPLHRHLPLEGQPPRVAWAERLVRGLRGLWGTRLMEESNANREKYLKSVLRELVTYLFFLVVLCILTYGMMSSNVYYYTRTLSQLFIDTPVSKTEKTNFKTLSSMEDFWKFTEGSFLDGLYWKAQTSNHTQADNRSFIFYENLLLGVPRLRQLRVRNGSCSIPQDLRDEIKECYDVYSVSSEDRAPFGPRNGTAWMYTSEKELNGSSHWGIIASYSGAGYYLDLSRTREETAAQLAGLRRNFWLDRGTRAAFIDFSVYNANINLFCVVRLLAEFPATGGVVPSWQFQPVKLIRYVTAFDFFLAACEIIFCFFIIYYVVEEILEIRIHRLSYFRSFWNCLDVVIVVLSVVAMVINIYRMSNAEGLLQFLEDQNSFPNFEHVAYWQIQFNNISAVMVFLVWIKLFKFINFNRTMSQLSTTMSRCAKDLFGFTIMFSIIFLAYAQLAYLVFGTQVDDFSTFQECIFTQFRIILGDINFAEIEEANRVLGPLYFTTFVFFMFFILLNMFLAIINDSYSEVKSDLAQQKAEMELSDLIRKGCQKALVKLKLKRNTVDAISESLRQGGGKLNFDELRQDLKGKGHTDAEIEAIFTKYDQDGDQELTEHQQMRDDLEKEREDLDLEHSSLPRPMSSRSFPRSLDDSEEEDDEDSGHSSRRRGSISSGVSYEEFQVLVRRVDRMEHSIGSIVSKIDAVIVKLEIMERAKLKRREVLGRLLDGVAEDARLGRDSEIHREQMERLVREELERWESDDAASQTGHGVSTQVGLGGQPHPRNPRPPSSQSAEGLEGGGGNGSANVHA
In words: Inside-out cilia patch of pIMCD cells, calcium opening of polycystin-2 channels. It counts as cell-based. To be noted: Pkd2del-Z/delZ mice; read-out: EC50, potency of calcium opening polycystin-2 channels. Here is the method:
Cell culture of primary inner medullary collecting duct cells and immortalized cell lines. Primary inner medullary collecting ducts cells (pIMCD) were isolated from WT or Pkd2^del-Z/del-Z mice co-expressing the ARL13B-EGFP cilia reporter using the previously described method (Liu et al., 2018). Briefly, inner medullae were removed from the kidney and disassociated using a Dulbecco's phosphate buffered solution (DPBS) containing 2 mg/ml collagenase A and 1 mg/ml hyaluronidase. After mechanical disassociation on ice, medullary cells were cultured in Dulbecco's modified essential medium (DMEM) supplemented with 10% fetal bovine serum (FBS) and 100 units/ml penicillin/100 μg/ml streptomycin. Cilia were patched from cells within 6 days after isolation and within one passage. HEK PKD2^Null cell lines were generated using the CRISPR/Cas9 gene editing kit available from Addgene and authenticated using PCR analysis, as previously described (Liu et al., 2018). […]
Electrophysiology. The electrophysiologist was blinded by a third party in the laboratory, where test groups were assigned a letter to conceal the genetic identity of the cells being evaluated. […] Ciliary ion currents were recorded using borosilicate glass electrodes polished to resistances of 14-23 MΩ using the cilium patch method previously described (Vien et al., 2020). Single channel currents measured in the inside-out configuration were recorded in symmetrical sodium concentrations. […] Calcium was buffered with 5 EGTA (ethylene glycol-bis(o-aminoethyl ether)-N,N,N′,N′-tetraacetic acid), 5 Na4-BAPTA (Glycine, N, N′-[1,2-ethanediylbis(oxy-2,1-phenylene)]bis[N-(carboxymethyl)]-,tetrasodium) and 0.5 EDTA […]; free calcium was calculated using Maxchilator and titration of 1 M CaCl2) solution (Bers et al., 2010); pH was adjusted to 7.3 using NaOH. […] Whole cell currents used to measure CDD were also recorded in symmetrical sodium concentration, placing the internal recording solution in the pipette electrode and the external recording solution in the bath. […]

Regarding `[Ca+2]` [Ca^2+, calcium], the EC50 is 1.4 ± 0.3 µM.

The record behind these values is patent US20210369677A1, “SMALL MOLECULE ACTIVATORS OF POLYCYSTIN-2 (PKD2) AND USES THEREOF” (Northwestern University, priority 2020, published 2021).
